Data on 12 compounds can be found in patent US6841577B2, “Pesticidal activity of plant essential oils and their constituents” (Ecosmart Technologies, Inc., priority 1999, dated 2005).

For the assay, the system named is octopamine receptor sites. The assay can be described thus: 3H-OA binding to ventral nerve cord / synaptosomal membrane protein. The arrangement: species or system American cockroach (Periplaneta americana). The conditions noted are these: for dpm 3H-OA/500 μg protein: Table 2; for cpm 3H-OA/500 μg protein: Table 3; for classification with respect to octopamine receptor sites (OAR): based on the binding data of Tables 1-3. Here is the method: Different concentrations of unlabeled octopamine (OA) (20, 30, 40, 50, 60, 100 ng) were tested on the binding activity as a positive control. Test chemicals were dissolved in acetone before the assay. Different concentrations of the test chemicals were added directly to the protein preparation from ventral nerve cord. The same amount of solvent (1 μl 0.1%) were added to the control samples. All assays with test chemicals were run in the presence and absence of 50 ng OA. All chemicals were added to the protein extract 20 min prior the addition of radio labeled ^3H-OA(100,000 cpm/sample). After 30 min at 24° C. of the addition of ^3H-OA, the reaction was stopped by the addition of ice-cold Tris buffer, and the samples were filtered through GF/C membrane using water vacuum. After two washes each with 5 ml Tris buffer, the membrane was removed, air dried and the radioactivity was counted in 4 ml liquid scintillation solution. The specific binding was calculated as the difference between the values in the presence and absence of unlabeled OA. All data are calculated as the mean±standard deviation of 5 assays.
Additional tests were conducted on radio labeled octopamine using other purified naturally occurring materials as given in Tables 2 and 3.

The mark [1] stands for this setting: 500 ng/ml, solvent control 1101 ± 120.
[2] abbreviates: 1000 ng/ml, solvent control 930 ± 89.
The mark [3] stands for this setting: 500 ng/ml, solvent control 1385 ± 101.
[4] abbreviates: 1000 ng/ml, solvent control 1915 ± 110.

For the compound `CC(C)=CCCC(C)CCO` (stereo not shown) [Citronellol], the “dpm 3H-OA/500 μg protein” value is, setting by setting: under setting [1], 999 ± 65 dpm 3H-OA/500 μg protein; under setting [2], 557 ± 43 dpm 3H-OA/500 μg protein.
For the compound `CCOc1cc(C=O)ccc1O` [Ethyl vanillin], the “classification with respect to octopamine receptor sites (OAR)” value (“classification” below) was “Non-OAR Specific Toxicants”. For the same compound, the “cpm 3H-OA/500 μg protein” value under setting [3] came to 1723 ± 119 cpm 3H-OA/500 μg protein.
As to `COc1ccccc1O` [Guaiacol], the “classification” value was “Non-OAR Specific Toxicants”. Under setting [3], the “cpm 3H-OA/500 μg protein” value is 1787 ± 151 cpm 3H-OA/500 μg protein.
For `O=Cc1ccc2c(c1)OCO2` [Piperonal], the “classification” value is “Non-OAR Specific Toxicants”. In addition, the “cpm 3H-OA/500 μg protein” value under setting [3] turned out to be 1680 ± 131 cpm 3H-OA/500 μg protein.
Regarding `CC(=O)OCc1ccc2c(c1)OCO2` [Piperonyl acetate], for the setting “500 ng/ml”, the “agonist/antagonist note to 3H-OA binding” value is listed as “antagonist”. Also, the “cpm 3H-OA/500 μg protein” value is reported as 1090 ± 092 cpm 3H-OA/500 μg protein under setting [3] and 519 ± 52 cpm 3H-OA/500 μg protein under setting [4].
Take `OCc1ccc2c(c1)OCO2` [Piperonyl alcohol]: under “500 ng/ml”, the “agonist/antagonist note to 3H-OA binding” value is given as “antagonist”. Further, the “cpm 3H-OA/500 μg protein” value came to 1124 ± 083 cpm 3H-OA/500 μg protein under setting [3] and 862 ± 61 cpm 3H-OA/500 μg protein under setting [4].
In the case of `C=C(C)[C@H]1CC=C(C)CC1` [R-limonene], the “classification” value is “Non-OAR Specific Toxicants”. Further, the “cpm 3H-OA/500 μg protein” value under setting [3] is recorded as 1436 ± 133 cpm 3H-OA/500 μg protein.
For the compound `C/C=C/c1ccc(OC)cc1` [Trans-Anethole], the “classification” value is reported as “moderate OAR antagonists”. Besides, the “agonist/antagonist note to 3H-OA binding” value (500 ng/ml) is listed as “antagonist”. Further, the “cpm 3H-OA/500 μg protein” value under setting [3] is 1104 ± 110 cpm 3H-OA/500 μg protein. The “cpm 3H-OA/500 μg protein” value under setting [4] was 970 ± 87 cpm 3H-OA/500 μg protein.
As to `COc1cc(C=O)ccc1O` [Vanillin], the “agonist/antagonist note to 3H-OA binding” value (500 ng/ml) is “antagonist”. The “cpm 3H-OA/500 μg protein” value is recorded as 1030 ± 83 cpm 3H-OA/500 μg protein under setting [3] and 700 ± 55 cpm 3H-OA/500 μg protein under setting [4].
Regarding `Cc1ccc(C(C)C)cc1` [p-cymene], the “classification” value was “moderate OAR antagonists”. The “agonist/antagonist note to 3H-OA binding” value (500 ng/ml) is given as “antagonist”. Moreover, the “cpm 3H-OA/500 μg protein” value under setting [3] turned out to be 1142 ± 074 cpm 3H-OA/500 μg protein. Also, the “cpm 3H-OA/500 μg protein” value under setting [4] is 804 ± 057 cpm 3H-OA/500 μg protein.
As for `CC1=CC[C@H](C(C)C)C=C1` [α-phellandrene], the “classification” value is reported as “OAR Agonists”. Further, the “agonist/antagonist note to 3H-OA binding” value (500 ng/ml) is “agonist”. Also, the “cpm 3H-OA/500 μg protein” value under setting [3] turned out to be 2353 ± 343 cpm 3H-OA/500 μg protein.
With Citronellal 80, the “classification” value is “moderate OAR antagonists”. Moreover, under “500 ng/ml”, the “agonist/antagonist note to 3H-OA binding” value is “antagonist”. The “dpm 3H-OA/500 μg protein” value under setting [1] turned out to be 725 ± 95 dpm 3H-OA/500 μg protein. For the same compound, the “dpm 3H-OA/500 μg protein” value under setting [2] was 526 ± 33 dpm 3H-OA/500 μg protein.
